Laboratory results from patent US10570121B2, “Substituted dihydroisoquinolinone compounds” (priority 2014, dated 2020).
Where two headings read alike, the source gives them in different places.

Key:
WT EZH2 = WT EZH2 (Homo sapiens (Human), UniProt Q15910); assay: WT EZH2 nucleosome assay (10X SAM, high SAM conditions); format: biochemical; settings: 15 uM SAM, Ki app from competitive inhibition fit
Method: (§1) The genes for EZH2, EED, SUZ12, and RBBP4 proteins were cloned into pBacPAK9 vectors (Clontech). RBBP4 was FLAG tagged on the N-terminal end. The baculovirus expressions of these proteins were used to co-infect SF9 insect cells. Insect cell pellets were lysed in a buffer containing 25 mM Tris pH8.0, 300 mM NaCl, 0.5 mM TCEP, complete EDTA-free protease inhibitor (Roche), 0.1% NP-40. The supernatant from the lysate was incubated with FLAG® M2 antibody resin (Sigma). The resin was washed on the chromatography column and eluted with 0.2 mg/ml FLAG peptide. The elute was incubated with omnicleave nucleases (Epicentre Technologies) at 4° C. overnight, then concentrated and loaded onto a Superdex 200 (GE Healthcare) column. The Superdex 200 column was eluted with 25 mM Tris pH8.0, 150 mM NaCl, 0.5 mM TCEP. Fractions containing the PRC2 complex were pooled.
(§2) A. Compound preparation • 1.
(§3) B. Reagent preparation • 1. […] Dilute TCA to 20% in DI water
(§4) C. Enzyme reaction • 1. […] Some compounds were tested under high SAM conditions.
(§5) D. Data analysis • 1. IC50 values were determined by fitting the data to a 4-parameter IC50 equation using proprietary curve fitting software. • 2. For compounds tested under high SAM conditions, Ki^app values were obtained by fitting the dose response curve to a model for competitive inhibition using proprietary curve fitting software. Preparation of HeLa Oligonucleosomes: Reagents • Cell Pellet: 15 L HeLa S3 (Accelgen)+6 L HeLa S3 (in house) • Mnase (Worthington Biochemicals) Equipment • SW-28 Rotor • Dounce Homogenizer/B Pestle Buffers • Lysis: 20 mM Hepes pH 7.5, 0.25M Sucrose, 3 mM MgCl2, 0.5% Nonidet P-40, 0.5 mM TCEP, 1 Roche Protease Tablet • B: 20 mM Hepes pH7.5, 3 mM MgCl2, 0.5 mM EDTA, 0.5 mM TCEP, 1 Roche Protease Tablet • MSB: 20 mM Hepes pH7.5, 0.4 M NaCl, 1 mM EDTA, 5% v/v Glycerol, 0.5 mM TCEP, 0.2 mM PMSF • LSB: 20 mM Hepes pH7.5, 0.1M NaCl, 1 mM EDTA, 0.5 mM TCEP, 0.2 mM PMSF • NG: 20 mM Hepes pH7.5, 1 mM EDTA, 0.4 m NaCl, 0.2 mM PMSF, 0.5 mM TCEP • Storage: 20 mM Hepes pH7.5, 1 mM EDTA, 10% Glycerol, 0.2 mM PMSF, 0.5 mM TCEP Protocol

EZH2 Mutant Y641N = EZH2 Mutant Y641N (Homo sapiens (Human), UniProt Q15910, Y641N); assay: EZH2 Mutant Y641N nucleosome assay; format: biochemical; settings: PRC2 4-protein complex 6 nM, 1.5 μM SAM, HeLa oligonucleosomes
Method: as §1, §2, §3, §4, §5

[1] = read-out: WT EZH2 Nucleosome assay (10X SAM) Ki
[2] = read-out: EZH2 Mutant Y641N Nucleosome assay IC50
[3] = EZH2 Mutant Y641N Nucleosome assay IC50 (μM)
[4] = WT EZH2 Nucleosome assay (10X SAM) Ki (μM)

Sequence of EZH2 Mutant Y641N (Q15910 whole entry Y641N, looked up): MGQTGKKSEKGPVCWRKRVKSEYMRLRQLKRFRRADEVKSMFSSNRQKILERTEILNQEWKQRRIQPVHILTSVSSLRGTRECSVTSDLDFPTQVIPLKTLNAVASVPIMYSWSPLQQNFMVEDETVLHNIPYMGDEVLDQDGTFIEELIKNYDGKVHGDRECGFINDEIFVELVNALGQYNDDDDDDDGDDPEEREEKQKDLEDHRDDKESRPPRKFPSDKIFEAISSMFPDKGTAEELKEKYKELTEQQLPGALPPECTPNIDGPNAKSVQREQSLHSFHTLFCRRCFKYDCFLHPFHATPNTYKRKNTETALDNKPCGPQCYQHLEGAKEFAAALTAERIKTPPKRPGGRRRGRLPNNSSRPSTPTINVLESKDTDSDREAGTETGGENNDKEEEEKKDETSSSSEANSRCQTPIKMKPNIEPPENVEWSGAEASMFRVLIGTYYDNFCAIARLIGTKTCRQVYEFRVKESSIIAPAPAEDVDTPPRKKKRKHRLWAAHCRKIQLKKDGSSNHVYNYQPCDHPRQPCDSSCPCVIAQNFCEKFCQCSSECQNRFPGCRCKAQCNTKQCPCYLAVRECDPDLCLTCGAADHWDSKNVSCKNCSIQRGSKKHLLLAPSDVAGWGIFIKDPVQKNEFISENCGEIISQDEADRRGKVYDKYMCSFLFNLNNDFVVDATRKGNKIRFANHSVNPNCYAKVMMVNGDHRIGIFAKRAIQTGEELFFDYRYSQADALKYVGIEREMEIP
Sequence of EZH2 Mutant Y641N (O75530 whole entry partner, looked up): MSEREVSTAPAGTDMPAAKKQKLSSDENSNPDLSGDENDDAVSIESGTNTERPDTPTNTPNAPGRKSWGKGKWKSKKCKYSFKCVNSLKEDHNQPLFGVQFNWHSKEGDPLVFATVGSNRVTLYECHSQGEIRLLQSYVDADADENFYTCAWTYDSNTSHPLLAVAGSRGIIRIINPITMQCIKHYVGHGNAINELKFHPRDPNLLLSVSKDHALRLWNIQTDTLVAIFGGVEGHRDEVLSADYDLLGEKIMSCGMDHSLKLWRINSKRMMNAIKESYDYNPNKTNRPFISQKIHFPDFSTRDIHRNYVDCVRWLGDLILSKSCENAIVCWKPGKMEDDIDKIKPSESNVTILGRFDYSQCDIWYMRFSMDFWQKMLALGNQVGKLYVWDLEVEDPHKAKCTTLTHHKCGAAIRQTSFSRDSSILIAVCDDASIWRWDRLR
Sequence of EZH2 Mutant Y641N (Q15022 whole entry partner, looked up): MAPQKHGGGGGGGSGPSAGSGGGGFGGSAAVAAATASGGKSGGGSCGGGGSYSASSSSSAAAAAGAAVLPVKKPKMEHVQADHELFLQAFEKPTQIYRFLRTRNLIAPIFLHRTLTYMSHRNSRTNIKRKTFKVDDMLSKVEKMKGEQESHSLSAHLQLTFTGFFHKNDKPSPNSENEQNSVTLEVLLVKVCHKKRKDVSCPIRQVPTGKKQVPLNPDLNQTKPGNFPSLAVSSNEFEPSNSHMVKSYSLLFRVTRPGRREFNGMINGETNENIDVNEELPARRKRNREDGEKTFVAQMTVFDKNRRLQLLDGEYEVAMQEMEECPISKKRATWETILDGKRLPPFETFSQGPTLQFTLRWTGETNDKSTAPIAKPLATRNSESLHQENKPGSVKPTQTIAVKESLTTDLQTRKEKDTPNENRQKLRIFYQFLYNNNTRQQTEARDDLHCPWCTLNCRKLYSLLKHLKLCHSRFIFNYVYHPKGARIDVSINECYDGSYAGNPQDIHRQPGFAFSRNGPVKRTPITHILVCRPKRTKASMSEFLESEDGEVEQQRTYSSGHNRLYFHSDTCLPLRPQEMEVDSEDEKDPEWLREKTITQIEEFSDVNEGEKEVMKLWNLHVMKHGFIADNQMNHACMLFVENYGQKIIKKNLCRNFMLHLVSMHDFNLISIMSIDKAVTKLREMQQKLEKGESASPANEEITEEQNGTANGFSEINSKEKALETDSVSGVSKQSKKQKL
Sequence of EZH2 Mutant Y641N (Q09028 whole entry partner, looked up): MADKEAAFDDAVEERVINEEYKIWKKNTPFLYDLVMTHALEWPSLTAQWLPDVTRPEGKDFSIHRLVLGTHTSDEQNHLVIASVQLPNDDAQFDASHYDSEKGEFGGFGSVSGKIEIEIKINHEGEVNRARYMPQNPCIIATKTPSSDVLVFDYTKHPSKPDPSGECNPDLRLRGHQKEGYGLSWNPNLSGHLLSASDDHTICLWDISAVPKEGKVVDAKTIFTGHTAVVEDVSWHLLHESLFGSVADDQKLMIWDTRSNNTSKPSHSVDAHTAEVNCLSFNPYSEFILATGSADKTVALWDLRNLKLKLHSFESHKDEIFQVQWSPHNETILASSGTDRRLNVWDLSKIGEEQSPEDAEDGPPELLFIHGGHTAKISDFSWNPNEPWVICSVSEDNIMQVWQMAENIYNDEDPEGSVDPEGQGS
Sequence of WT EZH2 (Q15910 whole entry, looked up): as the sequence (Q15910 whole entry Y641N, looked up) above, with N641Y counted along it
Sequence of WT EZH2 (O75530 whole entry partner, looked up): as the sequence (O75530 whole entry partner, looked up) above
Sequence of WT EZH2 (Q15022 whole entry partner, looked up): as the sequence (Q15022 whole entry partner, looked up) above
Sequence of WT EZH2 (Q09028 whole entry partner, looked up): as the sequence (Q09028 whole entry partner, looked up) above

Ki (WT EZH2; [1]) [µM] | IC50 (EZH2 Mutant Y641N; [2]) [µM] | IC50 (EZH2 Mutant Y641N; [3]) [µM] | Ki (WT EZH2; [4]) [µM] | Compound
0.215 | 0.996 |  |  | COC(C(C)=O)c1cc(Cl)c2c(c1Cl)C(=O)N(Cc1c(C)cc(C)[nH]c1=O)CC2 (racemic) [Example 49]
0.406 | 1.35 |  |  | Cc1cc(C)c(CN2CCc3c(Cl)cc(C(CO)N4CCCC4)c(Cl)c3C2=O)c(=O)[nH]1 (racemic) [Example 57]
0.025 | 0.155 |  |  | Cc1cc(C)c(CN2CCc3c(Cl)cc(C(CO)N4CCC(F)(F)C4)c(Cl)c3C2=O)c(=O)[nH]1 (racemic) [Example 59]
0.031 | 0.18 |  |  | Cc1cc(C)c(CN2CCc3c(Cl)cc(C(CO)N4CCOCC4)c(Cl)c3C2=O)c(=O)[nH]1 (racemic) [Example 60]
0.007 | 0.043 |  |  | Cc1cc(C)c(CN2CCc3ccc([C@@H](CO)[C@@H]4CCOC4)c(Cl)c3C2=O)c(=O)[nH]1 (racemic) [Example 64]
0.006 | 0.047 |  |  | Cc1cc(C)c(CN2CCc3ccc([C@H](CO)[C@@H]4CCOC4)c(Cl)c3C2=O)c(=O)[nH]1 (racemic) [Example 65]
 |  | 0.006 |  | [2H]C([2H])([2H])OC(c1cc(Cl)c2c(c1Cl)C(=O)N(Cc1c(C)cc(C)[nH]c1=O)CC2)C1CCN(C(=O)CO)CC1 (racemic) [Example 70]
0.003 | 0.02 |  |  | COC(c1cc(C)c2c(c1Cl)C(=O)N(Cc1c(C)cc(C)[nH]c1=O)CC2)C1CNC1 (racemic) [Example 178]
0.016 | 0.207 |  |  | Cc1cc(C)c(CN2CCc3c(Cl)cc(C(C)N4CCN(C)CC4)c(Cl)c3C2=O)c(=O)[nH]1 (racemic) [Example 202]
0.0007 | 0.008 |  |  | Cc1cc(C)c(CN2CCc3c(Cl)cc(C(C)N4CCNCC4)c(Cl)c3C2=O)c(=O)[nH]1 (racemic) [Example 205]
 |  | 0.019 | 0.003 | CCC(OC)c1cc(Cl)c2c(c1Cl)C(=O)N(Cc1c(C)cc(C)[nH]c1=O)CC2 (single isomer, unassigned) [Example 15, 5,8-dichloro-2-[(4,6-dimethyl-2-oxo-1,2-dihydropyridin-3-yl)methyl]-7-(1-methoxypropyl)-3,4-dihydroisoquinolin-1(2H)-one]
 |  | 0.04 | 0.004 | CCC(OC)c1cc(Cl)c2c(c1Cl)C(=O)N(Cc1c(C)cc(C)[nH]c1=O)CC2 (single isomer, unassigned) [Example 16, 5,8-dichloro-2-[(4,6-dimethyl-2-oxo-1,2-dihydropyridin-3-yl)methyl]-7-(1-methoxypropyl)-3,4-dihydroisoquinolin-1(2H)-one]
0.004 | 0.012 |  |  | Cc1cc(C)c(CN2CCc3c(Cl)cc([C@@H](CC#N)[C@@H]4CCOC4)c(Cl)c3C2=O)c(=O)[nH]1 (single isomer, unassigned) [Example 54]
 | 0.004 |  |  | Cc1cc(OC(F)F)c(CN2CCc3c(Cl)cc(C(CO)C4CCOCC4)c(Cl)c3C2=O)c(=O)[nH]1 (single isomer, unassigned) [Example 56]
0.031 | 0.127 |  |  | COC(c1cc(Cl)c2c(c1Cl)C(=O)N(Cc1c(C)cc(C)[nH]c1=O)CC2)C1CCN(C(=O)CC#N)CC1 (single isomer, unassigned) [Example 61]
0.009 | 0.081 |  |  | Cc1cc(C)c(CN2CCc3c(Cl)cc(C(CO)N4CCC(F)(F)C4)c(Cl)c3C2=O)c(=O)[nH]1 (single isomer, unassigned) [Example 66]
1.6 | 19.5 |  |  | Cc1cc(C)c(CN2CCc3c(Cl)cc(C(CO)N4CCC(F)(F)C4)c(Cl)c3C2=O)c(=O)[nH]1 (single isomer, unassigned) [Example 67]
0.007 | 0.074 |  |  | Cc1cc(C)c(CN2CCc3c(Cl)cc(C(CO)N4CCOCC4)c(Cl)c3C2=O)c(=O)[nH]1 (single isomer, unassigned) [Example 68]
0.417 | 4.31 |  |  | Cc1cc(C)c(CN2CCc3c(Cl)cc(C(CO)N4CCOCC4)c(Cl)c3C2=O)c(=O)[nH]1 (single isomer, unassigned) [Example 69]
 | 0.003 |  |  | COC(c1cc(Cl)c2c(c1Cl)C(=O)N(Cc1c(C)cc(C)[nH]c1=O)CC2)C1CCN(C(=O)CC#N)CC1 (single isomer, unassigned) [Example 71]
0.041 | 0.128 |  |  | COC(c1cc(Cl)c2c(c1Cl)C(=O)N(Cc1c(C)cc(C)[nH]c1=O)CC2)C1CCN(C=O)CC1 (single isomer, unassigned) [Example 72]
 | 0.002 |  |  | COC(c1cc(Cl)c2c(c1Cl)C(=O)N(Cc1c(C)cc(C)[nH]c1=O)CC2)C1CCN(C=O)CC1 (single isomer, unassigned) [Example 73]
0.0002 | 0.002 |  |  | COc1cc(C)[nH]c(=O)c1CN1CCc2c(C)cc([C@H](OC)[C@H]3CCOC3)c(Cl)c2C1=O (single isomer, unassigned) [Example 84, 8-chloro-2-[(4-methoxy-6-methyl-2-oxo-1,2-dihydropyridin-3-yl)methyl]-7-{(R*)-methoxy[(3S*)-tetrahydrofuran-3-yl]methyl}-5-methyl-3,4-dihydroisoquinolin-1(2H)-one]

Compound | Ki (WT EZH2; [1]) [µM] | IC50 (EZH2 Mutant Y641N; [2]) [µM] | IC50 (EZH2 Mutant Y641N; [3]) [µM] | Ki (WT EZH2; [4]) [µM]
Cc1cc(C)c(CN2CCc3c(Cl)cc(C(C)N4CCOCC4)c(Cl)c3C2=O)c(=O)[nH]1 (racemic) [Example 89, (±)-5,8-dichloro-2-[(4,6-dimethyl-2-oxo-1,2-dihydropyridin-3-yl)methyl]-7-[1-(morpholin-4-yl)ethyl]-3,4-dihydroisoquinolin-1(2H)-one] | 0.008 | 0.088 |  | 
Cc1cc(C)c(CN2CCc3c(Cl)cc(C(CO)N4CC[C@@H](F)C4)c(Cl)c3C2=O)c(=O)[nH]1 (single isomer, unassigned) [Example 6] | 0.019 | 0.136 |  | 
Cc1cc(C)c(CN2CCc3c(Cl)cc(C(CO)N4CC[C@@H](F)C4)c(Cl)c3C2=O)c(=O)[nH]1 (single isomer, unassigned) [Example 7] | 0.171 | 1.62 |  | 
COC(c1cc(Cl)c2c(c1Cl)C(=O)N(Cc1c(C)cc(C)[nH]c1=O)CC2)C1CCOCC1 (single isomer, unassigned) [Example 50] | 0.077 | 0.129 |  | 
COC(c1cc(Cl)c2c(c1Cl)C(=O)N(Cc1c(C)cc(C)[nH]c1=O)CC2)C1CCOCC1 (single isomer, unassigned) [Example 51] |  | 0.002 |  | 
COC(c1cc(Cl)c2c(c1Cl)C(=O)N(Cc1c(C)cc(C)[nH]c1=O)CC2)C1(O)CCOCC1 (single isomer, unassigned) [Example 52] | 0.298 | 1.04 |  | 
COC(c1cc(Cl)c2c(c1Cl)C(=O)N(Cc1c(C)cc(C)[nH]c1=O)CC2)C1(O)CCOCC1 (single isomer, unassigned) [Example 53] | 0.001 | 0.017 |  | 
Cc1cc(C)c(CN2CCc3c(Cl)cc(C(CO)N4CC[C@H](F)C4)c(Cl)c3C2=O)c(=O)[nH]1 (single isomer, unassigned) [Example 62] | 0.035 | 0.262 |  | 
Cc1cc(C)c(CN2CCc3c(Cl)cc(C(CO)N4CC[C@H](F)C4)c(Cl)c3C2=O)c(=O)[nH]1 (single isomer, unassigned) [Example 63] | 0.528 | 4.1 |  | 
Cc1cc(C)c(CN2CCc3c(Cl)cc([C@@H](CO)[C@@H]4CCOC4)c(Cl)c3C2=O)c(=O)[nH]1 [Example 4, 5,8-dichloro-2-[(4,6-dimethyl-2-oxo-1,2-dihydropyridin-3-yl)methyl]-7-{(1S)-2-hydroxy-1-[(3S)-tetrahydrofuran-3-yl]ethyl}-3,4-dihydroisoquinolin-1(2H)-one] |  | 1.95 |  | 
